Results taken from PubChem BioAssay (NCI).
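Method: 48-hour compound exposure of cells in 96-well plates, five concentrations, linear interpolation of endpoints. TGI is the concentration that stops growth completely.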 Where a SMILES comes first, the peptide text is derived from it. The star is where a group is joined. Cbz = O=C(OCc1ccccc1)*

What was measured:
Test in all cases: NCI anticancer screen, dose series, 48 h
SR leukemia = test system: SR leukemia
OVCAR-8 ovarian = test system: OVCAR-8 ovarian
HS 578T breast = test system: HS 578T breast
T-47D breast = test system: T-47D breast
MCF7 breast = test system: MCF7 breast
786-0 renal = test system: 786-0 renal
MALME-3M melanoma = test system: MALME-3M melanoma
M14 melanoma = test system: M14 melanoma
NCI-H226 lung = test system: NCI-H226 lung
K-562 leukemia = test system: K-562 leukemia
A549 NSCLC = test system: A549 NSCLC
TK-10 renal = test system: TK-10 renal
MDA-MB-231 breast = test system: MDA-MB-231 breast
CCRF-CEM leukemia = test system: CCRF-CEM leukemia
EKVX NSCLC = test system: EKVX NSCLC
OVCAR-5 ovarian = test system: OVCAR-5 ovarian
OVCAR-3 ovarian = test system: OVCAR-3 ovarian
KM12 colon = test system: KM12 colon
SN12C renal = test system: SN12C renal
HCC-2998 colon = test system: HCC-2998 colon

| Structure (SMILES) | TGI (SR leukemia) [µM] | TGI (OVCAR-8 ovarian) [µM] | TGI (HS 578T breast) [µM] | TGI (T-47D breast) [µM] | TGI (MCF7 breast) [µM] | TGI (786-0 renal) [µM] | TGI (MALME-3M melanoma) [µM] | TGI (M14 melanoma) [µM] | TGI (NCI-H226 lung) [µM] | TGI (K-562 leukemia) [µM] | TGI (A549 NSCLC) [µM] | TGI (TK-10 renal) [µM] | TGI (MDA-MB-231 breast) [µM] | TGI (CCRF-CEM leukemia) [µM] | TGI (EKVX NSCLC) [µM] | TGI (OVCAR-5 ovarian) [µM] | TGI (OVCAR-3 ovarian) [µM] | TGI (KM12 colon) [µM] | TGI (SN12C renal) [µM] | TGI (HCC-2998 colon) [µM] |
| --- | --- | --- | --- | --- | --- | --- | --- | --- | --- | --- | --- | --- | --- | --- | --- | --- | --- | --- | --- | --- |
| O=S1(=O)c2ccccc2N2C(c3ccccc3)=NOC2(c2ccccc2)CC1c1ccc(Br)cc1 (stereo not given) | > 100 | > 100 | > 100 | > 100 | > 100 | > 100 | > 100 | > 100 | > 100 | > 100 | > 100 | > 100 | > 100 | > 100 | > 100 | > 100 | > 100 | > 100 | > 100 | > 100 |
| C1=CCC[C@@H]2CN3CCCC/C=C\CCCC[C@H]4C[C@H](CN(CCCCCCCC1)C4)[C@H]2CC3 | 20.1 | 17.5 | 20.2 | 20.8 | 16.4 | 15.9 | 17.5 | 18.7 | > 50 | 24 | 17.8 | 15.8 | 16.4 | 34.9 | 21.6 | 23.7 | 15.2 | 15.6 | 21 | 14.4 |
| c1cc(C2=NCCO2)c2ccsc2c1 | > 100 | > 100 | 49.8 | > 100 | > 100 | > 100 | > 100 | > 100 | > 100 | > 100 | > 100 | > 100 | > 100 | > 100 | > 100 | > 100 | > 100 | > 100 | > 100 | > 100 |
| CC(=O)Nn1cnc(C(=N)C#N)c1N | > 100 | > 100 | > 100 | > 100 | > 100 | > 100 | > 100 | > 100 | > 100 | > 100 | > 100 | > 100 | > 100 | > 100 | > 100 | > 100 | > 100 | > 100 | > 100 | > 100 |
| Cn1c2ccccc2c2c3c(c4c5ccccc5n(C5OC(CO)C(O)C(O)C5O)c4c21)C(=O)OC3=O (stereo not given) | > 100 | > 100 | > 100 | > 100 | > 100 | > 100 | > 100 | > 100 | > 100 | > 100 | > 100 | > 100 | > 100 | > 100 | > 100 | > 100 | > 100 | > 100 | > 100 | > 100 |
| O=C1/C(=C/c2ccccc2)CCc2ccc([N+](=O)[O-])cc21 | > 63.3 | > 100 | > 100 | > 100 | > 100 | > 80.3 | > 100 | > 96.4 | > 100 | > 100 | > 100 | > 100 | > 100 | > 100 | > 100 | > 100 | > 100 | > 100 | > 100 | > 100 |
| O=C1CCCCCCCCCCC1CN1CCOCC1 (stereo not given) | > 100 | > 100 | > 100 | > 100 | > 100 | > 100 | > 100 | > 100 | > 100 | > 100 | > 100 | > 100 | > 100 | > 100 | > 100 | > 100 | > 100 | > 100 | > 100 | > 100 |
| CCOC(=O)C(NC(=O)c1ccccc1)(c1ccc(S(=O)(=O)Nc2onc(C)c2C)cc1)C(F)(F)F (stereo not given) | > 100 | > 100 | > 100 | > 100 | > 100 | > 100 | > 100 | > 100 | > 100 | > 100 | > 100 | > 100 | > 100 | > 100 | > 100 | > 100 | > 100 | > 100 | > 100 | > 100 |
| COC(=O)c1sc2c(=O)c(C(=O)OC)c(C(=O)OC)sc2c(=O)c1C(=O)OC | > 100 | > 100 | > 100 | > 100 | > 100 | > 100 | > 100 | > 100 | > 100 | > 100 | > 100 | > 100 | > 100 | > 100 | > 100 | > 100 | > 100 | > 100 | > 100 | > 100 |
| COc1ccc2nc3cc([N+](=O)[O-])ccc3c(Nc3ccc(S(=O)(=O)Nc4ncccn4)cc3)c2c1 | > 30.5 | > 100 | 92.4 | > 100 | > 100 | > 100 | > 100 | > 100 | > 100 | > 88.2 | > 100 | > 100 | > 100 | > 100 | > 100 | > 100 | > 100 | > 100 | > 100 | > 100 |
| COC(=O)C(CC(C)C)NC(=O)C(CCCN=C(N)N)NC(=O)OCc1ccccc1 (stereo not drawn) (Cbz-Arg-Leu-OMe; configuration not given here) | > 100 | > 100 | > 100 | > 100 | > 100 | > 100 | > 100 | > 100 | > 100 | > 100 | > 100 | > 100 | > 100 | > 100 | > 100 | > 100 | > 100 | > 100 | > 100 | > 100 |
